Test results from patent publication US6471948B1 (Church & Dwight Co. Inc., priority 2000, dated 2002).

Experiment: Cetylpyridinium chloride adsorption on mucin-coated hydroxyapatite disks, HPLC of extract
Type: physicochemical
Conditions: for % Activity: relative to no surfactant
Protocol: Disks of hydroxyapatite (HAP) measuring 0.5 inch diameter and 0.04 inch thick were obtained from Clarkson Chromatography Products (Williamsport, Penn.). The disks were hydrated in deionized water for one hour and then allowed to air dry.
A 1% dispersion of bovine submaxillary mucin (type 1S, from Sigma) was then prepared. The HAP disks were then soaked in the 1% mucin dispersion overnight. The disks were then allowed to air dry for al least 2 hours. These disks, composed of HAP on which was deposited a layer of mucin, represented an oral surface.
The disks were soaked in 5 ml of the test solution for 10 minutes in a polystyrene petri dish (35 mm diameter×10 mm deep, from Becton Dickinson). The disks were then removed, rinsed for 3 seconds with deionized water on each side with a wash bottle.
The extractant solution is composed of 60 parts of a 20 mM phosphate buffer and 40 parts methanol, in which is dissolved 30 mM cetyltrimethylammonium bromide. The disks were soaked in 5 ml of the extractant solution for 2 hours.

[1] = Example 2: test solution as Example 1, also 0.125% by weight sodium bicarbonate
[2] = Example 1: test solution 0.125% cetylpyridinium chloride + 0.9% surfactant, disks soaked 10 minutes
[3] = Example 1: test solution 0.125% cetylpyridinium chloride + 0.9% surfactant

Dodecyl-Amphodiacetate
CPC adsorbed [1]: 10.6 μg/disk
% Activity [1]: 17.0%

Cocamidopropyl betaine
CPC adsorbed [2]: 41.8 μg/disk
% Activity [3]: 70.4%
cetylpyridinium chloride absorbed (in words) (Example 1 test solutions): clearly superior
CPC adsorbed [1]: 41.2 μg/disk
% Activity [1]: 66.0%

CCCCCCCC[NH2+][O-] [Octylamine oxide]
CPC adsorbed [1]: 47.4 μg/disk
% Activity [1]: 76.0%

CCCCCCCCCC[NH2+][O-] [Decylamine oxide]
CPC adsorbed [1]: 39.1 μg/disk
% Activity [1]: 62.7%

Dodecyl-Iminodipropionate
CPC adsorbed [1]: 7.4 μg/disk
% Activity [1]: 11.9%

Cocobetaine
CPC adsorbed [1]: 48.8 μg/disk
% Activity [1]: 78.2%

Cocoamphodiacetate
CPC adsorbed [2]: 8.0 μg/disk
% Activity [3]: 13.5%
